Tests used:
[1] = target: T1, VIM‐1 (Pseudomonas aeruginosa, UniProt A0A0F7KYQ8); experiment: Fluorescence-based enzyme activity assay (Fluorocillin), VIM-1; format: biochemical
T1 construct: made in house
Procedure: (§1) In order to investigate the structure‐activity relationships of the dithiol library, we measured the inhibitory activity of 3 a–x in a fluorescence‐based enzyme activity assay (Table 1). Two relevant β‐lactamase isoforms, NDM‐1 and VIM‐1 were selected for in vitro assays. The fluorogenic substrate fluorocillin[15] was prepared according to literature and its conversion was monitored as described previously.[6] In general, a linear relationship between the potency of 3 a–x towards both enzymes could be observed, however, inhibitory potency towards VIM‐1 was almost tenfold higher (Figure 3). A very clear preference for the propane‐1,3‐dithiol over ethane‐1,2‐dithiol compounds could be observed from matched molecular pairs.
(§2) Activity assays for MBLs were performed at room temperature in black polystyrol 96well plates (Corning, Corning, NY, USA) using dicefalotinodifluorofluorescein (Fluorocillin) as a substrate. Proteins were diluted in assay buffer (HEPES 50 mM, pH 7.5 containing 0.01 %Triton X‐100), with final protein concentrations of NDM‐1: 3 nM, or VIM‐1: 4 nM. Samples were supplemented with an equimolar amount of ZnCl2. An amount of 1 μL of compounds 3 a–3 x at different concentrations was incubated with 89 μL of enzyme in assay buffer. After an incubation period of 30 min at room temperature, 10 μL of Fluorocillin substrate was added to yield the final assay volume of 100 μL. Final concentration of DMSO was 1 %. The fluorescence emitted by the fluorescent product difluorofluorescein was monitored every 45 s for 30 cycles using a Tecan fluorescent plate reader (Infinite 200; excitation at 495 nm and emission at 525 nm) and was compared with a standard curve. The rate of the enzymatic reaction was obtained by dividing the quantity of the fluorescent product (RFU) by time (min). Negative controls were measured in the absence of enzyme, whereas the positive controls were measured in the presence of enzyme and in the absence of inhibitors. The inhibitory effect of each substance was measured in triplicate in three independent experiments. IC50 values were calculated using data obtained from measurements with at least eight different inhibitor concentrations, applying a sigmoidal dose–response (variable slope with four parameters) equation using GraphPad Prism 5 (GraphPad Software, La Jolla, CA, USA) software. In order to investigate the inhibitory activity of 3 a, 3 o, or 3 s in the presence of a high Zn^2+ concentration, assay buffer containing an additional 100 μM ZnCl2 was used. The assay was performed as described above with NDM‐1 or VIM‐1 and 10 μM of 3 a, 3 o, or 3 s.

[2] = target: T2, NDM‐1 (Klebsiella pneumoniae, UniProt C7C422); experiment: Fluorescence-based enzyme activity assay (Fluorocillin), NDM-1; format: biochemical
T2 construct: made in house
T2 sequence (C7C422 29-270, looked up, species assumed): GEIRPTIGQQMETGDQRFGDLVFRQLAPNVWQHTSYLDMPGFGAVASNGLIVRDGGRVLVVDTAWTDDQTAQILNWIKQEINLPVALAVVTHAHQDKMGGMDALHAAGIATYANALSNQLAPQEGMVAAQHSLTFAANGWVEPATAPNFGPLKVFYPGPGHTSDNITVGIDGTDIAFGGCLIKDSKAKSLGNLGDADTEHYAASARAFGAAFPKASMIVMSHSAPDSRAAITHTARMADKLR
Procedure: as §1, §2

[3] = tested on: E. coli NDM‐1 (T2359); experiment: Checkerboard synergy assay with imipenem, E. coli NDM-1; format: cell-based; conditions: for Imipenem MIC: E. coli NDM-1 (T2359)
Procedure: (§3) To investigate this, the MIC of imipenem or combined with various concentrations of compound 3a, 3o, or 3 s was determined against E. coli transformants producing NDM‐1 or VIM‐1 (Table 3 and 4).
(§4) Minimal inhibitory concentrations (MICs) of imipenem monohydrate (Sigma‐Aldrich)±compound 3 a, 3 o, or 3 s against transformed E. coli strains producing NDM‐1 or VIM‐1 were determined according to microdilution method established by Clinical and Laboratory Standards Institute (CLSI).^20 The checkerboard assay was performed to test for synergy in vitro. The microtiter‐plates were set up with serial doubling dilutions of compound 3 a, 3 o, or 3 s (2‐128 mg/L) and imipenem (0.125‐128 mg/L).

[4] = tested on: E. coli VIM‐1 (T2544); experiment: Checkerboard synergy assay with imipenem, E. coli VIM-1; format: cell-based; conditions: for Imipenem MIC: E. coli VIM-1 (T2544)
Procedure: as §3, §4

[5] = target: T3, VIM‐2 (Escherichia coli, UniProt Q5U7L7); experiment: Kd determination using isothermal titration calorimetry; format: binding; conditions: ITC, 250 μM compound into 50 μM VIM-2, 25 °C
T3 construct: made in house
Procedure: The next step was the investigation of the binding thermodynamics of 3 a, 3 o, and 3 s. For these experiments we used a closely related enzyme VIM‐2 which is an isoform of VIM‐1 and can be recombinantly expressed in very high concentrations, suitable tor isothermal titration calorimetry (ITC) experiments (Figure 6).
VIM‐2 expression and purification was published elsewhere.[19] Before the measurement the VIM‐2 protein was dialyzed against 500 times the volume of buffer (50 mM Tris, 500 mM NaCl, 5 % (v/v) glycerol with a pH=8) using a dialysis membrane with a 3.5 kDa MWCO. For the measurements the compounds 3 a, 3 o, or 3 s, respectively, were diluted using the dialyses buffer to a final concentration of 250 μM containing a final DMSO concentration of 1 %. The VIM‐2 protein was diluted to a final concentration of 50 μM, supplemented with 1 % DMSO using the dialysis buffer and pure DMSO. For the control measurements dialysis buffer was supplemented with pure DMSO to a final concentration of 1 %. The measurements were performed using an “Affinity ITC” (TA‐Instruments) in reversed mode, with a stir rate of 75 rpm and a temperature of 25 °C. The VIM‐2 was placed in the cell and the respective compound in the syringe. For blank measurements either the protein or compound dilution were exchanged with buffer containing 1 % DMSO. For the measurements of 3 a and 3 s one time 0.5 μl was injected followed by 50 injections of 2 μl with a spacing of 240 s. 3 o was measured with one injection of 0.5 μl followed by 35 injections of 2 μl with a spacing of 240 s. The data were analyzed using the “NanoAnalyze Data Analysis” software (version 3.10.0; TA‐Instruments).

[6] = tested on: E. coli VIM‐1 (T2544); experiment: Intrinsic antimicrobial activity (MIC, CLSI microdilution), E. coli VIM-1; format: cell-based; conditions: Escherichia coli
Procedure: as §4

[7] = tested on: E. coli NDM‐1 (T2359); experiment: Intrinsic antimicrobial activity (MIC, CLSI microdilution), E. coli NDM-1; format: cell-based
Procedure: as §4

[8] = Escherichia coli, read-out: Imipenem MIC
[9] = 10 μM compound, additional 100 μM ZnCl2 in assay buffer

## CN1CCC(SCCCS)C1=O (stereo not drawn) [3 m, 3‐((3‐Mercaptopropyl)thio)‐1‐methylpyrrolidin‐2‐one]
[1]
  IC50: 0.18 µM
[2]
  IC50: 1.58 ± 0.22 µM

## O=C1OCCC1SCCS (stereo not drawn) [3 h, 3‐((2‐Mercaptoethyl)thio)dihydrofuran‐2(3H)‐one]
[1]
  IC50: 0.46 ± 0.03 µM
[2]
  IC50: 3.63 ± 0.47 µM

## O=C(CSCCS)c1ccc(Cl)cc1 [3 d, 1‐(4‐Chlorophenyl)‐2‐((2‐mercaptoethyl)thio)ethanone]
[1]
  IC50: 0.23 ± 0.01 µM
[2]
  IC50: 5.63 ± 1.19 µM

## O=C1C(SCCCS)CCN1c1cccc(C(F)(F)F)c1 (stereo not drawn) [3 q, 3‐((3‐Mercaptopropyl)thio)‐1‐(3‐(trifluoromethyl)phenyl)pyrrolidin‐2‐one]
[1]
  IC50: 0.07 ± 0.01 µM
[2]
  IC50: 0.48 ± 0.01 µM

## COc1ccc(C(=O)CSCCS)cc1 [3 f, 2‐((2‐Mercaptoethyl)thio)‐1‐(4‐methoxyphenyl)ethanone]
[1]
  IC50: 0.18 ± 0.01 µM
[2]
  IC50: 1.34 ± 0.32 µM

## CN(Cc1ccc(Cl)cc1)C(=O)CSCCS [3 w, N‐(4‐Chlorobenzyl)‐2‐((2‐mercaptoethyl)thio)‐N‐methylacetamide]
[1]
  IC50: 0.1 ± 0.01 µM
[2]
  IC50: 0.58 ± 0.03 µM

## CN(C(=O)CSCCS)[C@H]1CCCC[C@@H]1O (relative stereo) [3 v, N‐((1S*,2S*)‐2‐Hydroxycyclohexyl)‐2‐((2‐mercaptoethyl)thio)‐N‐methylacetamide]
[1]
  IC50: 0.33 ± 0.02 µM
[2]
  IC50: 5.5 ± 0.3 µM

## C[C@@H](O)[C@H]1C(=O)N2C(C(=O)O)=C(SCCN=CN)C[C@H]12 [Imipenem, imipenem, reference compound]
[3]; [8]
  MIC: 128 mg/L
[4]; [8]
  MIC: 32 mg/L

## O=C1C(SCCCS)CCN1c1ccccc1 (stereo not drawn) [3 o, 3‐((3‐Mercaptopropyl)thio)‐1‐phenylpyrrolidin‐2‐one]
[5]
  ΔH: -49 kJ/mol
[5]; inset of Figure 6
  Kd: 0.534 µM
[1]
  IC50: 0.02 µM
[1]; [9]
  Effect of added zinc ions on inhibitory activity (VIM-1): does not impair the inhibitory activity
[3]; +2 μg/ml compound
  Imipenem MIC: 128 mg/L
[3]; +4 μg/ml compound
  Imipenem MIC: 128 mg/L
[3]; +8 μg/ml compound
  Imipenem MIC: 128 mg/L
[3]; +16 μg/ml compound
  Imipenem MIC: 128 mg/L
[3]; +32 μg/ml compound
  Imipenem MIC: 32 mg/L
[3]; +64 μg/ml compound
  Imipenem MIC: 32 mg/L
[3]; +128 μg/ml compound
  Imipenem MIC: 16 mg/L
[3]; NDM-1 producing bacteria, maximal reduction
  Reduction of the MIC of imipenem: up to 8 fold
[6]
  MIC: > 512 mg/L
[4]; +2 μg/ml compound
  Imipenem MIC: 16 mg/L
[4]; +4 μg/ml compound
  Imipenem MIC: 16 mg/L
[4]; +8 μg/ml compound
  Imipenem MIC: 16 mg/L
[4]; +16 μg/ml compound
  Imipenem MIC: 16 mg/L
[4]; +32 μg/ml compound
  Imipenem MIC: 8 mg/L
[4]; +64 μg/ml compound
  Imipenem MIC: 2 mg/L
[4]; +128 μg/ml compound
  Imipenem MIC: 1 mg/L
[4]; VIM-1 producing bacteria, maximal reduction
  Reduction of the MIC of imipenem: ≤ 32 fold
[2]
  IC50: 0.3 ± 0.04 µM
[2]; [9]
  Effect of added zinc ions on inhibitory activity (NDM-1): does not impair the inhibitory activity
[7]; Escherichia coli
  MIC: > 512 mg/L
[7]; compound alone, E. coli transformants producing NDM-1 or VIM-1 (Table 2)
  Intrinsic antimicrobial activity: no intrinsic antimicrobial activity

## Cc1ccc(C(=O)CSCCCS)cc1 [3 c, 2‐((3‐Mercaptopropyl)thio)‐1‐(p–tolyl)ethanone]
[1]
  IC50: 0.07 ± 0.01 µM
[2]
  IC50: 0.25 ± 0.06 µM

## COC(=O)CC(SCCCS)C(=O)OC (stereo not drawn) [3 l, Dimethyl 2‐((3‐mercaptopropyl)thio)succinate]
[1]
  IC50: 0.04 ± 0.01 µM
[2]
  IC50: 0.44 ± 0.11 µM

## CCOC(=O)C(SCCCS)c1ccc([N+](=O)[O-])cc1 (stereo not drawn) [3 k, Ethyl 2‐((3‐mercaptopropyl)thio)‐2‐(4‐nitrophenyl)acetate]
[1]
  IC50: 0.73 ± 0.05 µM
[2]
  IC50: 7.79 ± 1.3 µM

## O=C(CSCCCS)N1CCN(Cc2ccc(Cl)cc2)CC1 [3 u, 1‐(4‐(4‐Chlorobenzyl)piperazin‐1‐yl)‐2‐((3‐mercaptopropyl)thio)ethan‐1‐one]
[1]
  IC50: 0.3 ± 0.02 µM
[2]
  IC50: 3.31 ± 0.12 µM

## N#Cc1ccc(N2CCC(SCCS)C2=O)cc1 (stereo not drawn) [3 t, 4‐(3‐((2‐Mercaptoethyl)thio)‐2‐oxopyrrolidin‐1‐yl)benzonitrile]
[1]
  IC50: 0.1 ± 0.02 µM
[2]
  IC50: 1.19 ± 0.12 µM

## O=C1C(SCCS)CCN1c1cccc(C(F)(F)F)c1 (stereo not drawn) [3 p, 3‐((2‐Mercaptoethyl)thio)‐1‐(3‐(trifluoromethyl)phenyl)pyrrolidin‐2‐one]
[1]
  IC50: 0.22 ± 0.01 µM
[2]
  IC50: 2.08 ± 0.11 µM

## O=C(CSCCCS)c1ccc(F)cc1 [3 e, 1‐(4‐Fluorophenyl)‐2‐((3‐mercaptopropyl)thio)ethanone]
[1]
  IC50: 0.23 ± 0.05 µM
[2]
  IC50: 0.6 ± 0.03 µM

## Cc1ccc(S(=O)(=O)N2CCN(C(=O)CSCCS)CC2)cc1 [3 x, 2‐((2‐Mercaptoethyl)thio)‐1‐(4‐tosylpiperazin‐1‐yl)ethanone]
[1]
  IC50: 0.4 ± 0.03 µM
[2]
  IC50: 2.4 ± 0.13 µM

## COc1ccc(C(=O)CSCCCS)cc1 [3 g, 2‐((3‐Mercaptopropyl)thio)‐1‐(4‐methoxyphenyl)ethanone]
[1]
  IC50: 0.14 µM
[2]
  IC50: 0.43 ± 0.02 µM

## Cc1ccc(C(=O)CSCCS)cc1 [3 b, 2‐((2‐Mercaptoethyl)thio)‐1‐(p–tolyl)ethanone]
[1]
  IC50: 0.22 ± 0.03 µM
[2]
  IC50: 3.91 ± 0.42 µM

## COC(=O)C(SCCS)c1ccc(Cl)cc1 (stereo not drawn) [3 i, Methyl 2‐(4‐chlorophenyl)‐2‐((2‐mercaptoethyl)thio)acetate]
[1]
  IC50: 0.19 ± 0.01 µM
[2]
  IC50: 0.88 ± 0.16 µM

## O=C1C(SCCS)CCN1c1ccccc1 (stereo not drawn) [3 n, 3‐((2‐Mercaptoethyl)thio)‐1‐phenylpyrrolidin‐2‐one]
[1]
  IC50: 0.08 µM
[2]
  IC50: 1.41 ± 0.07 µM

## CCOC(=O)C(SCCS)c1ccc([N+](=O)[O-])cc1 (stereo not drawn) [3 j, Ethyl 2‐((2‐mercaptoethyl)thio)‐2‐(4‐nitrophenyl)acetate]
[1]
  IC50: 0.9 ± 0.06 µM
[2]
  IC50: 1.55 ± 0.42 µM

## O=C1C(SCCS)CCN1c1nccs1 (stereo not drawn) [3 r, 3‐((2‐Mercaptoethyl)thio)‐1‐(thiazol‐2‐yl)pyrrolidin‐2‐one]
[1]
  IC50: 0.04 ± 0.02 µM
[2]
  IC50: 1.54 ± 0.03 µM
